Patent US20210038559A1, “CANNABINOIDS AND DERIVATIVES FOR PROMOTING IMMUNOGENICITY OF TUMOR AND INFECTED CELLS” (priority 2018, published 2021)
Structures can show the parent of a compound that is named as a salt.

What follows are molecules tested on MHC-I expression by COLO 205 cells (assay: cells). Details: not given.
Type: cell-based, human
Protocol: A panel of synthetic cannabinoids (Cayman Chemical, #9002891) was tested for MHC class I-inducing capability in COLO 205 cells as described above. COLO 205 cells were treated with the compounds at a concentration of 35 μM and evaluated for cell surface MHC class I expression after 48 hours. Cells were harvested, stained with MHC-I mAb W6/32 (Thermo Fisher). MHC-I expression was determined by flow cytometry.
For `COC(=O)[C@@H](NC(=O)c1nn(CCCC(C)F)c2ccccc12)C(C)C` (some centres unmarked) [Example 268, methyl (1-(4-fluoropentyl)-1H-indazole-3-carbonyl)-1-valinate], the “Induction Fold” value was 1.55 Fold.

Same assay, conditions: Homo sapiens, COLO 205, 48 h, MHC-I expression, COLO 205 cells, compounds at 35 μM, 48 hours, flow cytometry (W6/32); read-out: Induction Fold
For `CCCCCn1cc(C(=O)Oc2ccc3ncccc3c2)c2ccccc21` [Example 256, quinolin-6-yl 1-pentyl-1H-indole-3-carboxylate], the fold induction at 35 µM was 1.59.
Work on `O=C(Oc1cccc2ccccc12)c1cn(CCCCCF)c2ccccc12` [Example 257, naphthalen-1-yl 1-(5-fluoropentyl)-1H-indole-3-carboxylate] yielded a fold induction at 35 µM of 1.59.
`CCCCCn1nc(C(=O)Oc2cccc3cccnc23)c2ccccc21` [Example 258, 1-pentyl-1H-indazole-3-carboxylic acid, 8-quinolinyl ester] was tested, and the fold induction at 35 µM was 1.59.
`CCCCCn1cc(C(=O)c2ccc3ccccc3c2)c2ccccc21` [Example 259, 2-naphthalenyl(1-pentyl-1H-indol-3-yl)-methanone] was tested, and the fold induction at 35 µM was 1.58.
For `CC1(C)C(C(=O)c2cn(CC3CCOCC3)c3ccccc23)C1(C)C` [Example 260, [1-[(tetrahydro-2H-pyran-4-yl)methyl]-1H-indol-3-yl](2,2,3,3-tetramethylcyclopropyl)-methanone], the fold induction at 35 µM was 1.57.
`O=C(Oc1cnc2ccccc2c1)c1cn(CC2CCCCC2)c2ccccc12` [Example 261, Quinolin-3-yl 1-(cyclohexylmethyl)-1H-indole-3-carboxylate] gave a fold induction at 35 µM of 1.56.
For `CCCCCn1cc(C(=O)c2cc(Cl)cc3ccccc23)c2ccccc21` [Example 263, (3-chloronaphthalen-1-yl)(1-pentyl-1H-indol-3-yl)methanone, hydrate], the fold induction at 35 µM was 1.56.
`CCCCCn1cc(C(=O)c2cc(CC)cc3ccccc23)c2ccccc21` [Example 264, (3-ethyl-1-naphthalenyl)(1-pentyl-1H-indol-3-yl)-methanone] showed a fold induction at 35 µM of 1.56.
Work on `CCCCCn1cc(C(=O)c2ccc(OC)c3ccccc23)c2ccccc21` [Example 265, (4-methoxy-1-naphthalenyl)(1-pentyl-1H-indol-3-yl)-methanone] yielded a fold induction at 35 µM of 1.55.
With `NC(=O)[C@H](Cc1ccccc1)NC(=O)c1cn(CCCCCF)c2ccccc12` [Example 267, (S)-N-(1-amino-1-oxo-3-phenylpropan-2-yl)-1-(5-fluoropentyl)-1H-indole-3-carboxamide] the fold induction at 35 µM was 1.55.
`CCC(C)Cn1cc(C(=O)c2ccc3ccccc3c2)c2ccccc21` (centres unmarked) [Example 271, (1-(2-methylbutyl)-1H-indol-3-yl)(naphthalen-2-yl)-methanone] gave a fold induction at 35 µM of 1.54.
Molecule `CCCCCn1cc(C(=O)N2CCN(C)CC2)c2ccccc21` [Example 273, (4-methylpiperazin-1-yl)(1-pentyl-1H-indol-3-yl)methanone, monohydrochloride] has a fold induction at 35 µM of 1.53.
`CCCCCn1cc(C(=O)Oc2ccc3ccncc3c2)c2ccccc21` [Example 274, isoquinolin-7-yl 1-pentyl-1H-indole-3-carboxylate] was tested, and the fold induction at 35 µM was 1.52.
In the case of `CCCCCn1cc(C(=O)c2cccc3cc(CC)ccc23)c2ccccc21` [Example 275, (6-ethylnaphthalen-1-yl)(1-pentyl-1H-indol-3-yl)methanone], the fold induction at 35 µM is reported as 1.52.
`O=C(Oc1cccc2cccnc12)c1nn(Cc2ccc(F)cc2)c2ccccc12` [Example 276, quinolin-8-yl 1-(4-fluorobenzyl)-1H-indazole-3-carboxylate] showed a fold induction at 35 µM of 1.51.
In the case of `CN(C)C(=O)n1nnc(Cc2ccc(-c3ccccc3)cc2)n1` [Example 278, 5-([1,1′-biphenyl]-4-ylmethyl)-N,N-dimethyl-2H-tetrazole-2-carboxamide], the fold induction at 35 µM is reported as 1.49.
Molecule `CC(C)(NC(=O)c1nn(CCCCC#N)c2ccccc12)c1ccccc1` [Example 281, 1-(4-cyanobutyl)-N-(1-methyl-1-phenylethyl)-1H-indazole-3-carboxamide] has a fold induction at 35 µM of 1.48.
`CCCCn1cc(C(=O)c2ccc(OC)cc2)c2ccccc21` [Example 282, (4-methoxyphenyl)(1-butyl-1H-indol-3-yl)-methanone] gave a fold induction at 35 µM of 1.47.
`O=C(c1ccc(I)cc1)c1cn(CCCCCF)c2ccccc12` [Example 283, (1-(5-fluoropentyl)-1H-indol-3-yl)(4-iodophenyl)methanone] was tested, and the fold induction at 35 µM was 1.46.
`CC(C)Cn1cc(C(=O)c2ccc3ccccc3c2)c2ccccc21` [Example 284, (1-isobutyl-1H-indol-3-yl)(naphthalen-2-yl)methanone] gave a fold induction at 35 µM of 1.46.
For `CCCCCn1cc(C(=O)c2cccc3cc(Cl)ccc23)c2ccccc21` [Example 285, (6-chloronaphthalen-1-yl)(1-pentyl-1H-indol-3-yl)methanone], the fold induction at 35 µM was 1.46.
For `O=C(Nc1cccc2ccccc12)c1cn(CCCCCF)c2ccccc12` [Example 286, 1-(5-fluoropentyl)-N-(naphthalen-1-yl)-1H-indole-3-carboxamide], the fold induction at 35 µM was 1.45.
`CN(C)C(=O)n1nnnc1Cc1ccc(-c2ccccc2)cc1` [Example 288, 5-([1,1′-biphenyl]-4-ylmethyl)-N,N-dimethyl-1H-tetrazole-1-carboxamide] was tested, and the fold induction at 35 µM was 1.45.
`CC(C)(C)C(NC(=O)c1nn(CCCCCF)c2ccccc12)C(N)=O` (centres unmarked) [Example 289, N-[1-(aminocarbonyl)-2,2-dimethylpropyl]-1-(5-fluoropentyl)-1H-indazole-3-carboxamide] was tested, and the fold induction at 35 µM was 1.44.
With `CC(C)[C@H](NC(=O)c1nn(CCCCCF)c2ccccc12)C(N)=O` [Example 292, N-[(1S)-1-(aminocarbonyl)-2-methylpropyl]-1-(5-fluoropentyl)-1H-indazole-3-carboxamide] the fold induction at 35 µM was 1.43.
`CC(F)CCCn1nc(C(=O)NC(C(N)=O)C(C)C)c2ccccc21` (centres unmarked) [Example 293, N-(1-amino-3-methyl-1-oxobutan-2-yl)-1-(4-fluoropentyl)-1H-indazole-3-carboxamide] showed a fold induction at 35 µM of 1.43.
For `CCCCCn1nc2ccccc2c1C(=O)Nc1cccc2ccccc12` [Example 294, N-(naphthalen-1-yl)-2-pentyl-2H-indazole-3-carboxamide], the fold induction at 35 µM was 1.43.
For `COc1cccc2c(C(=O)N[C@@H]3C(C)(C)[C@@H]4CC[C@@]3(C)C4)c(C)n(CCN3CCOCC3)c12` [Example 295, 7-methoxy-2-methyl-1-[2-(4-morpholinyl)ethyl]-N-[(1S,2S,4R)-1,3,3-trimethylbicyclo[2.2.1]hept-2-yl]-1H-indole-3-carboxamide], the fold induction at 35 µM was 1.43.
Work on `CCCC(F)Cn1cc(C(=O)Nc2cccc3ccccc23)c2ccccc21` (centres unmarked) [Example 296, 1-(2-fluoropentyl)-N-(naphthalen-1-yl)-1H-indole-3-carboxamide] yielded a fold induction at 35 µM of 1.43.
`CC(C)(C)C(NC(=O)c1cn(CCCCCF)c2ccccc12)C(N)=O` (centres unmarked) [Example 297, N-[1-(aminocarbonyl)-2,2-dimethylpropyl]-1-(5-fluoropentyl)-1H-indole-3-carboxamide] was tested, and the fold induction at 35 µM was 1.42.
In the case of `CCCCCn1cc(C(=O)c2cccc3cc(OC)ccc23)c2ccccc21` [Example 300, (6-methoxy-1-naphthalenyl)(1-pentyl-1H-indol-3-yl)-methanone], the fold induction at 35 µM is reported as 1.42.
With `CCCCCCc1ccc(O)cc1OCCCCCCCCCCC(=O)NC1CC1` [Example 302, N-cyclopropyl-11-(2-hexyl-5-hydroxyphenoxy)-undecanamide] the fold induction at 35 µM was 1.4.
`CCCCCC1=C/C(=C\c2cccc3ccccc23)c2ccccc21` [Example 303, 1-[(E)-(3-pentyl-1H-inden-1-ylidene)methyl]-naphthalene] was tested, and the fold induction at 35 µM was 1.39.
Molecule `CN1CCCCC(n2cc(C(=O)C3C(C)(C)C3(C)C)c3ccccc32)C1` (centres unmarked) [Example 305, (1-(1-methylazepan-3-yl)-1H-indol-3-yl)(2,2,3,3-tetramethylcyclopropyl)methanone] has a fold induction at 35 µM of 1.38.
`O=C(NCc1ccccc1)c1cn(CCCCCF)c2ccccc12` [Example 306, 1-(5-fluoropentyl)-N-(phenylmethyl)-1H-indole-3-carboxamide] gave a fold induction at 35 µM of 1.38.
For `CCCCCn1cc(C(=O)Nc2ccccc2)c2ccccc21` [Example 307, 1-pentyl-N-phenyl-1H-indole-3-carboxamide], the fold induction at 35 µM was 1.38.
Work on `COc1ccc(C(=O)c2c(C)n(CCN3CCOCC3)c3ccccc23)cc1` [Example 308] yielded a fold induction at 35 µM of 1.38.

Same assay, conditions: Homo sapiens, COLO 205, 48 h, read-out: Induction Fold
In the case of `CCCCCCC(C)(C)c1cc(OC)c(C2C=C(CO)C3CC2C3(C)C)c(OC)c1` (centres unmarked) [Example 304, 4-[4-(1,1-dimethylheptyl)-2,6-dimethoxyphenyl]-6,6-dimethyl-bicyclo[3.1.1]hept-2-ene-2-methanol], the fold induction at 35 µM is reported as 1.39.

Same assay, conditions: MHC-I expression, COLO 205 cells, compounds at 35 μM, 48 hours, flow cytometry (W6/32)
`CCCCCN1C(=O)C(=NNC(=O)c2ccccc2)c2ccc(OC)cc21` [Example 266, 2Z-(1,2-dihydro-6-methoxy-2-oxo-1-pentyl-3H-indol-3-ylidene)hydrazide benzoic acid] was tested, and the “Induction Fold” value was 1.55 Fold.
In the case of `COC(=O)[C@@H](NC(=O)c1cn(Cc2ccc(F)cc2)c2ccccc12)C(C)(C)C` [Example 269, N-[[1-[(4-fluorophenyl)methyl]-1H-indol-3-yl]carbonyl]-3-methyl-1-valine, methyl ester], the “Induction Fold” value is reported as 1.54 Fold.
With `COC(=O)[C@@H](NC(=O)c1cn(Cc2ccc(F)cc2)c2ccccc12)C(C)C` [Example 270, N-[[1-[(4-fluorophenyl)methyl]-1H-indol-3-yl]carbonyl]-1-valine, methyl ester] the “Induction Fold” value was 1.54 Fold.
`COC(=O)[C@@H](NC(=O)c1nn(CCCCCF)c2ccccc12)C(C)C` [Example 279, N-[[1-(5-fluoropentyl)-1H-indazol-3-yl]carbonyl]-L-valine, methyl ester] was tested, and the “Induction Fold” value was 1.49 Fold.
`O=C(NC12CC3CC(CC(C3)C1)C2)c1nn(CCCCCF)c2ccccc12` [Example 309, N-((3s,5s,7s)-adamantan-1-yl)-1-(5-fluoropentyl)-1H-indazole-3-carboxamide] was tested, and the “Induction Fold” value was 1.37 Fold.
